US9326511B2, “Methods of inhibiting microbial biofilms” (priority 2008, dated 2016)
≈ marks a conversion by molar mass, not a printed value. Entries after “also recorded” stand apart in the source; their conditions may differ. Like-named read-outs stand apart in the source and are kept apart here.

How the values were obtained:
Format in all cases: cell-based, Staphylococcus aureus
[1] = system: S. aureus SH1000 biofilms; assay: Biofilm MIC and minimum biofilm eradication concentration, Calgary Biofilm Device; conditions: for bMIC / MIC: biofilm MIC; for MBEC: minimum biofilm eradication concentration; for MIC: Staphylococcus aureus, SH1000BIOFILMS, read-out: bMIC
Description: (§1) Methods: MICs were determined for planktonic cultures by broth microdilution according to British Society for Antimicrobial Chemotherapy (BSAC) guidelines. Biofilm MICs (bMIC) and minimum biofilm eradication concentrations (MBECs) were determined using the Calgary biofilm device. The effect of Compound 10 on the viability of cold culture cells was determined by growing S. aureus SH1000 to early exponential phase at 37° C. and resuspending the cells in pre-chilled media, where they were maintained in the presence and absence of Compound 10 and control agents. The effect of Compound 10 on slow growing cells expressing the stringent response was also determined by growing cultures to early log phase and the stringent response induced by the addition of the isoleucyl-tRNA synthetase inhibitor mupirocin. Compound 10 and control agents were then added and samples recovered for viable cell determinations.
Biofilm MICs and minimum biofilm eradication concentrations (MBEC) were determined in the Calgary Biofilm Device (Nunc Inc, Roskilde, Denmark) as described by Miller et al., 2005. This involves the following steps. Aliquots (200 μL) of exponential phase cultures of strain SH1000 were added to each well of a 96-well microtitre tray. The lid assembly, which has 96 polystyrene pegs corresponding to each well, was then replaced and the system incubated for 24 hours at 37° C. on a rocking platform. Following this a biofilm of approximately 10^7 cfu matured on each peg. The lid was then washed twice in phosphate-buffered saline (PBS) to remove residual planktonic growth and then placed into a microtitre tray with fresh media containing doubling dilutions of the test antibiotic. The system was then incubated for 24 hours at 37° C. on a rocking platform. The MIC was defined as the lowest concentration of antibiotic completely inhibiting visible growth after this incubation. After the MIC was recorded, the lid assembly was again washed twice in PBS to remove planktonic cells and remaining antibiotic and then placed into fresh drug-free media. The system was incubated for a further 24 hours and the MBEC was defined as the lowest concentration of antibiotic completely inhibiting the re-establishment of planktonic growth.

S. aureus SH1000 = assay: Planktonic MIC by broth microdilution (BSAC guidelines)
Description: as §1

[2] = system: stringent S. aureus SH1000 cultures; assay: Time-kill against cultures expressing the stringent response (induced with mupirocin); conditions: stringent response induced with mupirocin, agents at 4×MIC
Description: as §1
When nutrients become limiting for growth bacteria adjust their metabolism from one that supports growth to one that provides for long survival in the absence of nutrients. In many bacteria a key facilitator of this physiological switch, known as the stringent response, is accumulation of guanosine […] and pentaphosphate (Traxler et al., 2008). The antibiotic mupirocin is a strong inducer of the stringent response in S. aureus and effectively causes starvation of charged isoleucyl tRNA by potent inhibition of isoleucy ItRNA synthetase (IRS) (Oliva et al., 2003). The activity of XF drugs against S. aureus SH1000 prevented from growing by the addition of mupirocin (Oliva et al., 2003), was therefore examined (FIG. 10). As an alternative method for arresting growth, bacteria were suspended in cold growth medium (Mascio et al., 2007) and the bactericidal activity of XF drugs was also determined under these conditions (FIG. 11).
(§2) The anti-staphylococcal activities of Compound 10, Compound 12 and a range of comparator agents against slow-growing cultures of Staphylococcus aureus were studied using standard time-kill methodology (Oliva et al. 2003, Hobbs et al. 2008). Staphylococcus aureus SH1000 cultures were grown to early exponential phase (OD600 nm of 0.2) in Mueller-Hinton broth (MHB) before being exposed to antibacterial agents at 4×MIC. An untreated culture served as the negative control. The experiments were undertaken in triplicate.
The antibiotic mupirocin is a strong inducer of the stringent response in S. aureus and causes starvation of charged isoleucyl tRNA by potent inhibition of isoleucyl tRNA synthetase (IRS) (Oliva et al. 2003, Cassels et al. 1995) Stringency was induced in SH1000 cultures by adding mupirocin (4 mg/L) to cells in the early exponential growth phase (OD600 nm of 0.2) (Oliva et al. 2003, Cassels et al. 1995). Cultures were incubated with mupirocin for 30 minutes before sampling began. Cultures were maintained at 37° C., and samples were taken at 30 minute intervals for 300 minutes, serially diluted in phosphate buffered saline (PBS) and diluted culture was spread on Mueller-Hinton agar and was incubated at 37° C. for 18-24 hours before the number of CFU were counted.

[3] = system: S. aureus SH1000 cold cultures; assay: Time-kill against cold cultures (4° C.); conditions: cold culture held at 4° C. for 5 hours, agents at 4×MIC
Description: as §1
The effect of XF drugs on the viability of cold culture cells was determined by growing S. aureus SH1000 to early exponential phase at 37° C., harvesting the cells by centrifugation (5,000×g, 10 min.) and resuspending them in pre-chilled media where they were maintained in the presence and absence of XF drugs and control agents for 5 hours. […] (FIG. 11).
as §2
Cold cultures were prepared by growing SH1000 cells to early exponential phase (OD600 nm of 0.2) at 37° C. Cultures were then centrifuged and the cell pellet was resuspended in MHB pre-chilled to 4° C. The killing kinetics of antimicrobial agents were studied as described in the section above, with the exception that cultures were maintained at 4° C. over the 5 hour sampling period.

[4] = S. aureus SH1000, Calgary Biofilm Device, 24 hours (Table 6)
[5] = S. aureus SH1000, Calgary device (Example H)
[6] = S. aureus SH1000, Calgary Biofilm Device (Table 6)
[7] = planktonic S. aureus SH1000 (Table 5)
[8] = planktonic S. aureus SH1000 (Table 6)
[9] = 24 h, S. aureus SH1000, Calgary Biofilm Device, 24 hours (Table 6)
[10] = Staphylococcus aureus, planktonic S. aureus SH1000 (Table 5), read-out: MIC

For `CCCCCCCCCCCCCCCC[N+](C)(C)C.[Br-]` [CTAB], the bMIC [1, 4] was 2 µg/mL, the bMIC [1, 5] was 2 µg/mL and the MBEC [1, 6] was greater than 256 µg/mL. For the same compound, the MBEC [1, 5] was greater than 256 µg/mL, the MIC (S. aureus SH1000; [7]) was 2 µg/mL and the MIC (S. aureus SH1000; [8]) was 2 µg/mL.

Compound `CO/N=C(\C(=O)N[C@@H]1C(=O)N2C(C(=O)O)=C(COC(C)=O)CS[C@H]12)c1csc(N)n1` [Cefotaxime] has an MIC [1, 9] of 4 µg/mL (≈ 8.78 µM), an MIC [1, 5] of 4 µg/mL (≈ 8.78 µM) and an MIC (S. aureus SH1000; [10]) of 0.5 µg/mL (≈ 1.1 µM). For the same compound, the MIC (S. aureus SH1000; [8]) was 0.5 µg/mL (≈ 1.1 µM).

`[H]/N=C(\N/C(=N/[H])NCCCCCCNC(=N)NC(=N)Nc1ccc(Cl)cc1)Nc1ccc(Cl)cc1` [Chlorhexidine] gave an MIC [1, 9] of 1 µg/mL (≈ 1.98 µM), an MIC [1, 5] of 1 µg/mL (≈ 1.98 µM) and an MIC (S. aureus SH1000; [10]) of 2 µg/mL (≈ 3.96 µM). The MIC (S. aureus SH1000; [8]) was 2 µg/mL (≈ 3.96 µM).

In the case of `O=C(O)c1cn(C2CC2)c2cc(N3CCNCC3)c(F)cc2c1=O` [Ciprofloxacin], the MIC [1, 9] is reported as 4 µg/mL (≈ 12.1 µM), the MIC [1, 5] is reported as 4 µg/mL (≈ 12.1 µM) and the MIC (S. aureus SH1000; [10]) is reported as 2 µg/mL (≈ 6.04 µM). The MIC (S. aureus SH1000; [8]) was 2 µg/mL (≈ 6.04 µM).

For `CCCCCCCCCC(=O)N[C@@H](Cc1c[nH]c2ccccc12)C(=O)N[C@H](CC(N)=O)C(=O)N[C@@H](CC(=O)O)C(=O)N[C@@H]1C(=O)NCC(=O)N[C@@H](CCCN)C(=O)N[C@@H](CC(=O)O)C(=O)N[C@H](C)C(=O)N[C@@H](CC(=O)O)C(=O)NCC(=O)N[C@H](CO)C(=O)N[C@@H]([C@H](C)CC(=O)O)C(=O)N[C@@H](CC(=O)c2ccccc2N)C(=O)O[C@@H]1C` [Daptomycin], the “viability / bactericidal activity in time-kill (in words)” value [2] was “no loss of viability”, the MIC [1, 9] was 2 µg/mL (≈ 1.23 µM) and the MIC [1, 5] was 2 µg/mL (≈ 1.23 µM). For the same compound, the “viability / bactericidal activity in time-kill (in words)” value [3] was “no loss of viability; also recorded: retained some bactericidal activity; also recorded: retained limited bactericidal activity”, the MIC (S. aureus SH1000; [10]) was 1 µg/mL (≈ 0.617 µM) and the MIC (S. aureus SH1000; [8]) was 1 µg/mL (≈ 0.617 µM).

For `Cc1onc(-c2c(F)cccc2Cl)c1C(=O)N[C@@H]1C(=O)N2[C@@H]1SC(C)(C)[C@@H]2C(=O)O` [Flucloxacillin], the MIC [1, 9] was 4 µg/mL (≈ 8.81 µM), the MIC [1, 5] was 4 µg/mL (≈ 8.81 µM) and the MIC (S. aureus SH1000; [10]) was 0.125 µg/mL (≈ 0.275 µM). The MIC (S. aureus SH1000; [8]) was 0.125 µg/mL (≈ 0.275 µM).

`CC(=O)O[C@H]1C[C@@]2(C)[C@@H](C[C@@H](O)[C@H]3[C@@]4(C)CC[C@@H](O)[C@@H](C)[C@@H]4CC[C@@]32C)/C1=C(\CCC=C(C)C)C(=O)O` [Fusidic acid] gave an MIC [1, 9] of 0.5 µg/mL (≈ 0.968 µM), an MIC [1, 5] of 0.5 µg/mL (≈ 0.968 µM) and an MIC (S. aureus SH1000; [10]) of 0.25 µg/mL (≈ 0.484 µM). It also gave an MIC (S. aureus SH1000; [8]) of 0.25 µg/mL (≈ 0.484 µM).

`C[C@@H](O)[C@H]1C(=O)N2C(C(=O)O)=C(S[C@@H]3CN[C@H](C(=O)N(C)C)C3)[C@H](C)[C@H]12` [Meropenem] was tested, and the MIC [1, 9] was 0.5 µg/mL (≈ 1.3 µM), the MIC [1, 5] was 0.5 µg/mL (≈ 1.3 µM) and the MIC (S. aureus SH1000; [10]) was 0.5 µg/mL (≈ 1.3 µM). It also gave an MIC (S. aureus SH1000; [8]) of 0.5 µg/mL (≈ 1.3 µM).

In the case of `C/C(=C\C(=O)OCCCCCCCCC(=O)O)C[C@@H]1OC[C@H](C[C@@H]2O[C@H]2[C@@H](C)[C@H](C)O)[C@@H](O)[C@H]1O` [Mupirocin], the MIC [1, 9] is reported as 0.25 µg/mL (≈ 0.499 µM), the MIC [1, 5] is reported as 0.25 µg/mL (≈ 0.499 µM) and the MIC (S. aureus SH1000; [10]) is reported as 0.125 µg/mL (≈ 0.25 µM). The MIC (S. aureus SH1000; [8]) was 0.125 µg/mL (≈ 0.25 µM).

`CO[C@H]1/C=C/O[C@@]2(C)Oc3c(C)c(O)c4c(O)c(c(/C=N/N5CCN(C)CC5)c(O)c4c3C2=O)NC(=O)/C(C)=C\C=C\[C@H](C)[C@H](O)[C@@H](C)[C@@H](O)[C@@H](C)[C@H](OC(C)=O)[C@@H]1C` [Rifampin] showed an MIC [1, 9] of 0.02 µg/mL (≈ 0.0243 µM), an MIC [1, 5] of 0.03 µg/mL (≈ 0.0365 µM) and an MIC (S. aureus SH1000; [10]) of 0.008 µg/mL (≈ 0.00972 µM). For the same compound, the MIC (S. aureus SH1000; [8]) was 0.008 µg/mL (≈ 0.00972 µM).

With `CN(C)[C@@H]1C(O)=C(C(N)=O)C(=O)[C@@]2(O)C(O)=C3C(=O)c4c(O)cccc4[C@@](C)(O)[C@H]3C[C@@H]12` [Tetracycline] the MIC [1, 9] was 0.5 µg/mL (≈ 1.13 µM), the MIC [1, 5] was 0.5 µg/mL (≈ 1.13 µM) and the MIC (S. aureus SH1000; [10]) was 1 µg/mL (≈ 2.25 µM). The MIC (S. aureus SH1000; [8]) was 1 µg/mL (≈ 2.25 µM).

In the case of Gentamycin, the bMIC [1, 4] is reported as 1 µg/mL, the bMIC [1, 5] is reported as 1 µg/mL and the MBEC [1, 6] is reported as greater than 256 µg/mL. It also gave an MBEC [1, 5] greater than 256 µg/mL, an MIC (S. aureus SH1000; [7]) of 0.5 µg/mL and an MIC (S. aureus SH1000; [8]) of 0.5 µg/mL.
